Test results: US20030232101A1, “Topical formulations of resorcinols and cannibinoids and methods of use” (Immugen Pharmaceuticals, Inc., priority 2002, published 2003)
“Also recorded” adds a separate entry of the source.

Key:
Assay type in all cases: cell-based
[1] = system: interaction of HIV gp 120 with CD4 (HeLa CD4 LTR β-gal / HL2/3 cell fusion); test: HeLa CD4 LTR β-gal/HL2/3 HIV-1 fusion assay (Experimental Example 1); settings: fusion assay
Excerpt: This assay uses the HeLa CD4 LTR β-gal and HL2-3 cells available from the AIDS Research and Reference Reagent Repository. The fusion assay utilizes HeLa CD4 LTR β-gal cells with HL2/3 cells as a fusion partner via the interaction of HIV gp 120 with CD4. HL2/3 cells express HIV-1 Env on their cell surface and contain an HIV-1 Tat expression cassette. Upon syncytium formation and plasma membrane fusion, cytoplasmic mixing of the HL2/3 and HeLa CD4 LTR b-gal cell contents results in the transactivation of the LTR and β-Galactosidase expression is then directly related to […] cell membrane fusion. Thus, these two mechanistic assays can be used to confirm and identify a virus entry-based target of the compound. Additionally, because the attachment assay uses cell-free virus this assay can be used to show applicability to cell-free virus transmission.
Twenty-four h prior to initiation of the assay cells were trypsinized, counted and 5×10^3 cells placed in a 0.2 cm well in media without selection antibiotics. To initiate the fusion assay HeLa CD4 LTR β-gal (5×10^3 cells per 0.2 cm well) were incubated with compound for 1 h at 37° C. HL2/3 cells (5×10^3) were added to the 0.2 cm well and the incubation continued for 48 h. At 48 h the wells were washed 1 time with PBS and β-galactosidase enzyme expression determined by chemiluminescence per manufacturers instructions (Tropix Gal-screen™, Tropix, Bedford, Mass.). Compound toxicity was monitored on sister plates using MTS dye reduction.
In addition to assessing inhibition of attachment with HeLa CD4 LTR β-gal cells a virus fusion assay was perfoed using HeLa CD4 LTR β-gal and HL2/3 cells. No timed addition of compound was employed, but rather the assay was performed to verify the effects of the compounds on the HeLa CD4 LTR β-gal cells β-galactosidase expression.

[2] = system: cell-to-cell fusion mediated by HIV-1 Env and CD4; test: Fusion assay, HeLa CD4 LTR β-gal and HL2/3 cells (Experimental Example 2); settings: Human immunodeficiency virus 1, HL2/3, read-out: Fusion Assay IC50
Procedure: (§1) The fusion assay assesses the ability of compounds to block cell-to-cell fusion mediated by HIV-1 Env and CD4 expressed on separate cells. This assay is sensitive to inhibitors of both the gp 120/CD4 interaction and inhibitors of the X4 coreceptor. HeLa CD4 LTR β-gal cells were plated in microtiter wells and diluted compounds are added and allowed to incubate at 37° C. for 1 hr prior to the addition of HL2/3 cells. The incubation was then continued for 40 to 48 h, after which fusion is monitored by measurement of β-galactosidase enzyme expression, detectable by chemiluminescence (Tropix Gal-screen, Tropix, Bedford, Mass.). Compound toxicity is monitored on a sister plate using XTT or MTS dye reduction. All determinations are performed in triplicate with serial_Log10 dilution of the test materials.

IIIB strain of HIV-1 = test: Virus attachment assay, HeLa CD4 LTR β-gal cells (Experimental Example 2); settings: Human immunodeficiency virus 1, IIIB, HeLa, read-out: Attachment Assay IC50
HIV-1 (96USHIPS7 strain) = test: HIV attachment assay in PBMCs (cell-associated p24); settings: for % Control / pg p24: 15 μM
Procedure: ELISA kits were purchased from Coulter Electronics. The assay was performed according to the manufacturer's instructions. Control curves were generated in each assay to accurately quantitate the amount of p24 antigen in each sample. For experiments using cell lysates. Fifty thousand (5×10^4) viable cells were lysed in Coulter ELISA buffer and subjected to 1 round of freeze/thawed to liberate trapped p24 and p24 detected per manufacturers instructions. HIV capsid protein (p24) was quantitated spectrophotometrically at 450 nm using a Molecular Devices Vmax plate reader using a standard curve. Final concentrations were calculated from the optical density values using the Molecular Devices Soft Max software package.
The attachment assay with PBMCs was performed as follows. Briefly, 1×10^6 PHA/IL-2 PBMCs were incubated for 0, 2, 4 and 24 hours with IMG compounds and cannabidiol in polypropylene tubes. A pre-titered amount of HIV-1 (96USHIPS7 strain, obtained from the AIDS Research and Reference Reagent Program ) was added in the presence of compound and incubated for 3 h at 37° C. After incubation the cultures were washed 3 times (400×g, 10 min, 4° C.) with media (1:25,000 dilution of input p24), the cell pellets lysed with p24 lysing buffer (Coulter) and p24 content determined by ELISA.
PBMCs pretreated with compounds for 0, 2, 4, and 24 were incubated with cell-free HIV-1 for 3 h and the excess unbound HIV removed. The assessed the amount of HIV bound to the cell was then assessed by measuring cell-associated p24 content of total cell lysates.

[3] = Compound toxicity in the fusion assay, sister plate, XTT or MTS (Example 2); settings: human, HeLa CD4 LTR β-gal cells, read-out: Fusion Assay TC50
Procedure: as §1

HIV-1 = test: HeLa CD4 LTR β-gal HIV-1 attachment assay (Experimental Example 1); settings: for IC50: Human immunodeficiency virus 1, HeLa

With `CC1=CCC2C(C1)c1c(O)cc(C(C)(C)CCCC(C)C)cc1OC2(C)C` (centres unmarked) [IMG509, 3-Norpentyl-3-(1,1,5-trimethylhexyl)-Δ8-tetrahydrocannabinol] the “Comments: suppression of β-galactosidase activity” value [1] was “Suppression of β-galactosidase”, the IC50 [2] was 1.21 µM and the IC50 (IIIB strain of HIV-1) was 48.4 µM. For the same compound, the “% Control” value (HIV-1 (96USHIPS7 strain); time 0 h) was 83.6%, the “pg p24” value (HIV-1 (96USHIPS7 strain); time 0 h) was 321 pg and the “% Control” value (HIV-1 (96USHIPS7 strain); time 2 h) was 81.8%. For the same compound, the “pg p24” value (HIV-1 (96USHIPS7 strain); time 2 h) was 314 pg, the “% Control” value (HIV-1 (96USHIPS7 strain); time 4 h) was 61.2% and the “pg p24” value (HIV-1 (96USHIPS7 strain); time 4 h) was 235 pg. For the same compound, the “% Control” value (HIV-1 (96USHIPS7 strain); time 24 h) was 77.3%, the “pg p24” value (HIV-1 (96USHIPS7 strain); time 24 h) was 297 pg and the “inhibition of HIV cell-association” value (HIV-1 (96USHIPS7 strain); 4 h preincubation) was “significantly inhibit HIV cell-association”. For the same compound, the CC50 [3] was 18.4 µM, the IC50 (HIV-1; Experiment 1, pretreat 0 h) was greater than 50 µM and the IC50 (HIV-1; Experiment 1, pretreat 4 h) was 21 µM. The IC50 (HIV-1; Experiment 1, pretreat 24 h) was 11.5 µM, the IC50 (HIV-1; Experiment 2, pretreat 0 h) was 28 µM and the IC50 (HIV-1; Experiment 2, pretreat 4 h) was 36 µM. For the same compound, the IC50 (HIV-1; Experiment 2, pretreat 24 h) was 3.5 µM, the “β-galactosidase production relative to background (cells alone+compounds)” value (HIV-1; following 24 h exposure) was “suppressed β-galactosidase production below background” and the “inhibition of HIV attachment/entry” value (HIV-1; following a 24 h pre-incubation) was “not”. The “Comment: transient suppression lost at lower concentrations” value (HIV-1; pretreat 0 h) was “transient suppression of virus replication; also recorded: Transient suppression lost with at lower” and the “Comment: suppression of β-galactosidase activity” value (HIV-1; pretreat 24 h) was “Suppression of β-galactosidase activity”.
